System: interferon regulatory factor (IRF) pathway in THP1-Dual™ cells
Assay: THP1-Dual reporter gene assay (Agonist_THP1_EC50)
Assay type: cell-based
Conditions: Homo sapiens, 20-24 hrs compound treatment, Lucia luciferase (IRF) readout
Description: This is the cellular reporter assay to evaluate compounds' agonism to interferon regulatory factor (IRF) pathway in THP1-Dual™ cells (InvivoGen, cat number thpd-nfis). THP1-Dual™ cells were derived from the human THP-1 monocyte cell line by stable integration lucia luciferase gene, a new secreted luciferase reporter gene, under the control of an ISG54 (interferon-stimulated gene) minimal promoter in conjunction with five interferon (IFN)-stimulated response elements. As a result, THP1-Dual™ cells allow the study of the IRF pathway, by assessing the activity of Lucia luciferase. Lucia luciferase protein is readily measurable in the cell culture supernatant when using QUANTI-Luc™ (InvivoGen, cat: rep-qlcg-500).
After 20-24 hrs compound treatment in THP1-Dual cells, the compounds' agonism to IRF pathway and cell toxicity were tested by measuring luminescence and OD 450 on an Envision plate reader.
On the day of experiment, 30 μL of test medium (RPMI 1640, 2 mM L-glutamine, 25 mM HEPES, […] heat-inactivated fetal bovine serum) was dispensed in a white 384-well plate (Grenier, cat: 781098) containing the serially diluted compounds (final 1% DMSO) transferred by the Echo550 machine. Then 30 μL of cell suspension (˜33,000 cells, 1.1×10^6 cells/mL) per well was added immediately by thermo multidrop combi dispenser for incubation 20-24 h at 37° C., […]. At the end of the incubation, 10 μL of cellular supernatant was transferred to proxiplate 384-plus plate for IRF detection, and then 10 μL of QUANTI-Luc™ Gold solution was added to the plate that proceeded with the measurement immediately. To detect cell viability, 30 μL of the CCK-8 working solution (Dojindo Molecular Technologies, cat: CK04-20) was added to the cell plate, which was Incubated for 2 hrs in the incubator to measure the absorbance at 450 nm using Envision.

EC50 [µM]	SMILES
0.09	COc1ccc(CCn2nc(C)c(O)c2-c2nc(-n3nc(C(N)=O)c4cc(C)ncc43)co2)cc1 [Example 78, 1-(2-(4-hydroxy-1-(4-methoxyphenethyl)-3-methyl-1H-pyrazol-5-yl)oxazol-4-yl)-5-methyl-1H-pyrazolo[3,4-c]pyridine-3-carboxamide]
0.053	Cc1cn2c(C(N)=O)nc(-c3nc(-c4c(O)c(C)nn4CCc4ccc(CN5CCOCC5)cc4)n[nH]3)c2cn1 [Example 87, 1-[3-[4-hydroxy-5-methyl-2-[2-[4-(morpholinomethyl)phenyl]ethyl]pyrazol-3-yl]-1H-1,2,4-triazol-5-yl]-6-methyl-imidazo[1,5-a]pyrazine-3-carboxamide]
0.093	COc1ccc(CCn2nc(C)c(O)c2-c2n[nH]c(-c3c(F)c(C(N)=O)n4cc(C)ncc34)n2)cc1 [Example 69, 7-fluoro-8-[3-[4-hydroxy-2-[2-(4-methoxyphenyl)ethyl]-5-methyl-pyrazol-3-yl]-1H-1,2,4-triazol-5-yl]-3-methyl-pyrrolo[1,2-a]pyrazine-6-carboxamide]
0.055	COCc1ccc(CCn2nc(C)c(O)c2-c2nc(-n3nc(C(N)=O)c4cc(C)ncc43)co2)cc1 [Example 89, 1-[2-[4-hydroxy-2-[2-[4-(methoxymethyl)phenyl]ethyl]-5-methyl-pyrazol-3-yl]oxazol-4-yl]-5-methyl-pyrazolo[3,4-c]pyridine-3-carboxamide]
0.17	Cc1cc2c(C(N)=O)nn(-c3coc(-c4c(O)c(C)nn4CCc4cccnc4)n3)c2cn1 [Example 74, 1-(2-(4-hydroxy-3-methyl-1-(2-(pyridin-3-yl)ethyl)-1H-pyrazol-5-yl)oxazol-4-yl)-5-methyl-1H-pyrazolo[3,4-c]pyridine-3-carboxamide]
0.222	CCCn1nc(C)c(O)c1-c1nc(-c2nc(C(N)=O)n3cc(C)ncc23)n(C)n1 [Example 92, 1-[5-(4-hydroxy-5-methyl-2-propyl-pyrazol-3-yl)-2-methyl-1,2,4-triazol-3-yl]-6-methyl-imidazo[1,5-a]pyrazine-3-carboxamide]
0.015	Cc1cn2c(C(N)=O)nc(-c3nc(-c4c(O)c(C)nn4CCc4ccc(CO)cc4)n[nH]3)c2cn1 [Example 71, 1-[3-[4-hydroxy-2-[2-[4-(hydroxymethyl)phenyl]ethyl]-5-methyl-pyrazol-3-yl]-1H-1,2,4-triazol-5-yl]-6-methyl-imidazo[1,5-a]pyrazine-3-carboxamide]
0.047	Cc1cc2c(C(N)=O)nn(-c3nc(-c4c(O)c(C)nn4CCc4ccc(C#N)cc4)n[nH]3)c2cn1 [Example 61, 1-[3-[2-[2-(4-cyanophenyl)ethyl]-4-hydroxy-5-methyl-pyrazol-3-yl]-1H-1,2,4-triazol-5-yl]-5-methyl-pyrazolo[3,4-c]pyridine-3-carboxamide]
0.017	COCc1cccc(CCn2nc(C)c(O)c2-c2n[nH]c(-n3nc(C(N)=O)c4cc(C)ncc43)n2)c1 [Example 65, 1-[3-[4-hydroxy-2-[2-[3-(methoxymethyl)phenyl]ethyl]-5-methyl-pyrazol-3-yl]-11H-1,2,4-triazol-5-yl]-5-methyl-pyrazolo[3,4-c]pyridine-3-carboxamide]

The remaining lines, values behind:

SMILES	EC50 [µM]
Cc1cc2c(C(N)=O)nn(-c3nc(-c4c(O)c(C)nn4CCc4cccnc4)n[nH]3)c2cn1 [Example 47, 1-[3-[4-hydroxy-5-methyl-2-[2-(3-pyridyl)ethyl]pyrazol-3-yl]-1H-1,2,4-triazol-5-yl]-5-methyl-pyrazolo[3,4-c]pyridine-3-carboxamide]	0.033
CCn1nc(C)c(O)c1-c1nc(-n2nc(C(N)=O)c3cc(C)ncc32)co1 [Example 21, 1-[2-(2-ethyl-4-hydroxy-5-methyl-pyrazol-3-yl)oxazol-4-yl]-5-methyl-pyrazolo[3,4-c]pyridine-3-carboxamide]	0.141
COCCCn1nc(C)c(O)c1-c1n[nH]c(-n2nc(C(N)=O)c3cc(C)ncc32)n1 [Example 44, 1-[3-[4-hydroxy-2-(3-methoxypropyl)-5-methyl-pyrazol-3-yl]-1H-1,2,4-triazol-5-yl]-5-methyl-pyrazolo[3,4-c]pyridine-3-carboxamide]	0.046
Cc1nn(CCCC#N)c(-c2n[nH]c(-c3nc(C(N)=O)cc4c3cnn4C)n2)c1O [Example 24, 4-[3-[2-(3-cyanopropyl)-4-hydroxy-5-methyl-pyrazol-3-yl]-1H-1,2,4-triazol-5-yl]-1-methyl-pyrazolo[4,3-c]pyridine-6-carboxamide]	0.127
CCn1nc(C)c(O)c1-c1n[nH]c(-c2nc(C(N)=O)n3cc(C(F)F)ncc23)n1 [Example 26, 6-(difluoromethyl)-1-[3-(2-ethyl-4-hydroxy-5-methyl-pyrazol-3-yl)-1H-1,2,4-triazol-5-yl]imidazo[1,5-a]pyrazine-3-carboxamide]	0.34
Cc1nn(CCn2cncn2)c(-c2n[nH]c(-c3nc(C(N)=O)cc4c3cnn4C)n2)c1O [Example 39, 4-[3-[4-hydroxy-5-methyl-2-[2-(1,2,4-triazol-1-yl)ethyl]pyrazol-3-yl]-1H-1,2,4-triazol-5-yl]-1-methyl-pyrazolo[4,3-c]pyridine-6-carboxamide]	0.225
CCCCn1nc(C)c(O)c1-c1n[nH]c(-n2nc(C(N)=O)c3cc(C)ncc32)n1 [Example 43, 1-[3-(2-butyl-4-hydroxy-5-methyl-pyrazol-3-yl)-1H-1,2,4-triazol-5-yl]-5-methyl-pyrazolo[3,4-c]pyridine-3-carboxamide]	0.015
Cc1nn(CCC(F)F)c(-c2n[nH]c(-c3nc(C(N)=O)cc4c3cnn4C)n2)c1O [Example 37, 4-[3-[2-(3,3-difluoropropyl)-4-hydroxy-5-methyl-pyrazol-3-yl]-1H-1,2,4-triazol-5-yl]-1-methyl-pyrazolo[4,3-c]pyridine-6-carboxamide]	0.014
CCn1nc(C)c(O)c1-c1nc(-c2nc(C(N)=O)cc3c2cnn3C)c(C(F)F)o1 [Example 10, 4-[5-(difluoromethyl)-2-(2-ethyl-4-hydroxy-5-methyl-pyrazol-3-yl)oxazol-4-yl]-1-methyl-pyrazolo[4,3-c]pyridine-6-carboxamide]	0.419
Cc1cc2c(C(N)=O)nn(-c3nc(-c4c(O)c(C)nn4CC4CC4)n[nH]3)c2cn1 [Example 32, 1-[3-[2-(cyclopropylmethyl)-4-hydroxy-5-methyl-pyrazol-3-yl]-1H-1,2,4-triazol-5-yl]-5-methyl-pyrazolo[3,4-c]pyridine-3-carboxamide]	0.036
CCn1nc(C)c(O)c1-c1nc(-c2c(F)c(C(N)=O)n3cc(C)ncc23)co1 [Example 28, 8-[2-(2-ethyl-4-hydroxy-5-methyl-pyrazol-3-yl)oxazol-4-yl]-7-fluoro-3-methyl-pyrrolo[1,2-a]pyrazine-6-carboxamide]	0.134
CCn1nc(C)c(O)c1-c1n[nH]c(-n2nc(C(N)=O)c3cc(C)ncc32)n1 [Example 22, 1-[3-(2-ethyl-4-hydroxy-5-methyl-pyrazol-3-yl)-1H-1,2,4-triazol-5-yl]-5-methyl-pyrazolo[3,4-c]pyridine-3-carboxamide]	0.082
COCCn1nc(C)c(O)c1-c1n[nH]c(-n2nc(C(N)=O)c3cc(C)ncc32)n1 [Example 42, 1-[3-[4-hydroxy-2-(2-methoxyethyl)-5-methyl-pyrazol-3-yl]-1H-1,2,4-triazol-5-yl]-5-methyl-pyrazolo[3,4-c]pyridine-3-carboxamide]	0.045
CCn1nc(C)c(O)c1-c1n[nH]c(-c2cc(C(N)=O)n3cc(C)ncc23)n1 [Example 3, 8-[3-(2-ethyl-4-hydroxy-5-methyl-pyrazol-3-yl)-1H-1,2,4-triazol-5-yl]-3-methyl-pyrrolo[1,2-a]pyrazine-6-carboxamide]	0.606
CCn1nc(C)c(O)c1-c1n[nH]c(-c2cc(C(N)=O)c3cc(C)ncn23)n1 [Example 20, 7-[3-(2-ethyl-4-hydroxy-5-methyl-pyrazol-3-yl)-1H-1,2,4-triazol-5-yl]-3-methyl-pyrrolo[1,2-c]pyrimidine-5-carboxamide]	0.283
Cc1cn2c(C(N)=O)c(F)c(-c3nc(-c4c(O)c(C)nn4CCc4ccccc4)n[nH]3)c2cn1 [Example 57, 7-fluoro-8-[3-[4-hydroxy-5-methyl-2-(2-phenylethyl)pyrazol-3-yl]-1H-1,2,4-triazol-5-yl]-3-methyl-pyrrolo[1,2-a]pyrazine-6-carboxamide]	0.062
CC#CCCn1nc(C)c(O)c1-c1n[nH]c(-n2nc(C(N)=O)c3cc(C)ncc32)n1 [Example 51, 1-[3-(4-hydroxy-5-methyl-2-pent-3-ynyl-pyrazol-3-yl)-1H-1,2,4-triazol-5-yl]-5-methyl-pyrazolo[3,4-c]pyridine-3-carboxamide]	0.034
Cc1nn(CCn2ccnc2)c(-c2n[nH]c(-c3nc(C(N)=O)cc4c3cnn4C)n2)c1O [Example 23, 4-[3-[4-hydroxy-2-(2-imidazol-1-ylethyl)-5-methyl-pyrazol-3-yl]-1H-1,2,4-triazol-5-yl]-1-methyl-pyrazolo[4,3-c]pyridine-6-carboxamide]	0.275

— patent US20250074913A1, “PYRAZOLE DERIVATIVES AS STING AGONISTS” (Hoffmann-La Roche Inc., priority 2022, published 2025)
